This is an account of results in patent US9719981B2, “RAC1 inhibitors for the treatment of alport glomerular disease” (Father Flanagan's Boys' Home, priority 2012, dated 2017).

The test system of assay [1] is 129 autosomal Alport mice. As to the kind of experiment: Endothelin receptor blockade (Bosentan or Sitaxentan) in 129 autosomal Alport mice. The format is in vivo, mouse. As to conditions: for Mesangial filopodial invasion and deposition of laminin 211 in the glomerular capillaries: Alport mouse model; for Ameliorating Alport renal disease (comparison of the two antagonists) / GBM structural abnormalities / Glomerular expression of MMPs and pro-inflammatory cytokines / Mesangial process invasion of the glomerular capillaries / Onset and progression of proteinuria: treated from 2 to 7 weeks of age. The protocol:
With this example, 129 autosomal Alport mice were given either Bosentan (an endothelin A and B receptor antagonist) or Sitaxentan (an endothelin A receptor antagonist) from 2 to 7 weeks of age. Mice were analyzed longitudinally for proteinuria and BUN, glomerular RNA for gene expression of MMPs and pro-inflammatory cytokines by real time RT-PCR, and tissue was analyzed histochemistry and immunohistochemistry for pathologic changes.
To determine whether ETR antagonism prevents mesangial filopodia formation in vivo, we treated 129 Sv Alport mice with either Bosentan (ETAR and ETBR antagonist) or Sitaxentan (an ETAR antagonist) from 2 weeks to 7 weeks of age.

Assay [2] deals with 129 Sv autosomal Alport mice. As to the kind of experiment: Bosentan treatment of 129 Sv autosomal Alport mice. Type of assay: in vivo, mouse. As for the experimental part:
It is known that matrix metalloproteinases (MMPs), transforming growth factor beta 1 (TGF-β1), and monocyte chemoattractant protein-1 (MCP-1) contribute to the progression of Alport glomerular pathology (Cosgrove et al., 2000, Am J Pathol; 157(5):1649-59; Rao et al., 2006, Am J Pathol; 169(1):32-46; Eisberg et al., 2006, PLoS Med; 3(4):e100). 129 Sv autosomal Alport mice and wild type littermates were treated with 100 mg/kg Bosentan or with […] vehicle by oral gavage from 2 to 7 weeks of age. One kidney was prepared for immunohistochemistry, and the other used for glomerular RNA isolation. […] MMP-9 expression was not affected; however this MMP has been shown not to contribute to progression of Alport glomerular disease (Andrews et al., 2000, Am J Pathol; 157(1):303-11). Kidney cryosections from these same mice were immunostained using antibodies against fibronectin, to assess interstitial fibrosis, and CD11b, to assess the degree of monocytic interstitial infiltration.

The subject of another assay is cultured mesangial cells. In words: Endothelin-1 induced drebrin-positive actin microspikes in mesangial cells. Type of assay: cell-based, mouse. As for the experimental part: (§1) FIG. 30. Treatment of mesangial cells with endothelin-1 activates CDC42 and induces the formation of drebrin-positive actin microspikes; microspikes and CDC42 activation are inhibited by pre-treatment of cells with Sitaxentan. A) Cultured mesangial cells were serum starved, pretreated for 1 hour with or without Sitaxentan, treated for 30 minutes with endothelin-1, fixed with acetone, and dual stained with anti-drebrin antibodies (red) and phalloidin (green). Drebrin-positive microspikes (filopodia, denoted by arrowheads) are highly abundant on the endothelin-treated cells, but not detected when the cells are pre-treated with Sitaxentan. B) Cells were treated as in A, then lysates prepared and assayed by ELISA for GTP-CDC42.
(§2) To address this, serum-starved cultured mesangial cells were pre-treated (or not) with the ETAR antagonist, Sitaxentan, and then stimulated the cells with endothelin-1. Cells were then dual labeled with anti-drebrin antibodies (drebrin stabilizes actin filaments in filopodia) and phalloidin. […] Lysates from cultured mesangial cells were further analysed using these same conditions for the activation of CDC42 using a commercial ELISA assay for GTP-CDC42.

The test system of another assay is CDC42. In words: ELISA for GTP-CDC42 in endothelin-1 treated mesangial cells. The format is cell-based, mouse. The protocol: as §1, §2
On the technique in general: ELISA stands for enzyme-linked immunosorbent assay.

In assay [3] the test system is primary cultured mesangial cells. In words: Boyden chamber (Transwell) cell migration assay, wild type mesangial cells. Type of assay: cell-based, mouse. As to conditions: relative to 10% FCS, p<0.05. As for the experimental part:
MES Migration (insert). Transwell cell migration assays were performed as described by Daniel et al. (Daniel et al., 2012, Lab Invest; 92(6): 812-26) with some modifications. 8 micron, 24-well plate control inserts (BD Bioscience, Bedford, Mass.) were coated overnight at 4° C. with 100 μl of 0.1% gelatin/PBS then washed 1× with PBS. MES cultures were incubated in 1% FCS overnight, then 0.05% BSA-containing media for at least 8 hours, washed 1× with PBS and carefully tryspinized to ensure a single cell suspension and limited “clumping” of cells. After serum-neutralization and subsequent centrifugation, ˜100,000 cells were resuspended in 1.5 mls of 0.05% BSA media containing activators/inhibitors. The wells of a 24-well plate were filled with 0.75 mls of 10% FCS-containing media plus activators/inhibitors (excluding 0.05% BSA control well). 0.5 ml of cell-suspension was loaded into the gelatin-coated insert and the insert placed in a well. Wells were visually inspected for bubbles beneath insert and equal distribution of cell-suspension. Cells were allowed to migrate overnight (˜18 hrs). Using a moistened cotton swab, non-migrated cells were liberated from the apical-side of the insert by gentle but firm rubbing. A second swab repeated the removal and was followed by a single wash with PBS. Inserts were fixed, stained and washed (2×) in companion 24 well plate(s) containing 0.5 mls MEOH, 0.5 mls 1% Toluidine Blue in 1% Borax and 0.5 mls distilled H2O, respectively. Inserts were air dried and counted at 100× magnification. Five fields were counted on each insert including one center and four periphery areas. Data was expressed as relative to 10% FCS control well (set equal to one).

Assay [4] relates to cultured wild type mesangial cells. In words: LPS-induced actin cytoskeletal rearrangement (phalloidin staining). The format is cell-based, mouse. As to conditions: 10 ng/ml LPS; 10 μM Rac-1 inhibitor or 1 μM CDC42 inhibitor; blinded. As for the experimental part: Activation of mesangial cell cultures by treatment with LPS. Sub-confluent mesangial cells were tryspinized; plated at low density on Rat tail type 1 collagen (BD Biosciences) coated cytology slides (VWR) and incubated overnight in 1% FCS-containing media. One hour after the addition of serum-free media, 1 μM CDC42 Inhibitor (KSC-23-233) and 10 μM Rac-1 Inhibitor, NSC-23766 (Tocris) were added to individual slides and allowed to incubate for an additional hour. 10 ng/ml Lipopolysaccharides (Sigma-Aldrich) was added to cells, incubated 1 hour, fixed in ice cold acetone for 5 minutes and allowed to air dry ˜2 hours. Cells were stained with a 1:100 dilution of antibodies specific for CDC42 (10155-1-AP, PROTEINTECH™), and phalloidin (Molecular Probes) imaged. Untreated, LPS alone and LPS plus inhibitors treatments were repeated on two different derivations of primary mesangial cells with qualitatively consistent results.

The test system of assay [5] is integrin α1-null mesangial cells. In words: Boyden chamber (Transwell) cell migration assay, integrin α1-null mesangial cells. Type of assay: cell-based, mouse. As to conditions: relative to 10% FCS. The protocol: MES Migration (insert). Transwell cell migration assays were performed as described by Daniel et al. (Daniel et al., 2012, Lab Invest; 92(6): 812-26) with some modifications. 8 micron, 24-well plate control inserts (BD Bioscience, Bedford, Mass.) were coated overnight at 4° C. with 100 μl of 0.1% gelatin/PBS then washed 1× with PBS. MES cultures were incubated in 1% FCS overnight, then 0.05% BSA-containing media for at least 8 hours, washed 1× with PBS and carefully tryspinized to ensure a single cell suspension and limited “clumping” of cells. After serum-neutralization and subsequent centrifugation, ˜100,000 cells were resuspended in 1.5 mls of 0.05% BSA media containing activators/inhibitors. The wells of a 24-well plate were filled with 0.75 mls of 10% FCS-containing media plus activators/inhibitors (excluding 0.05% BSA control well). 0.5 ml of cell-suspension was loaded into the gelatin-coated insert and the insert placed in a well. Wells were visually inspected for bubbles beneath insert and equal distribution of cell-suspension. Cells were allowed to migrate overnight (˜18 hrs). […] Inserts were air dried and counted at 100× magnification. Five fields were counted on each insert including one center and four periphery areas. Data was expressed as relative to 10% FCS control well (set equal to one).

In assay [6] the test system is 129 Sv autosomal Alport mice. In words: Sitaxentan treatment of 129 Sv autosomal Alport mice. Type of assay: in vivo, mouse. As for the experimental part: FIG. 32. […] At least 6 glomeruli from at least 3 independent animals per group were analyzed by quantifying red fluorescence in circumferential capillary loops (defined by laminin α5 immunostaining in green) using NIH image J software. Mesangial angles were excluded. A) An example of how the capillaries were partitioned for these measures. B) Immunogold labeling for integrin α8 in a filopodial cross-section on the sub-endothelial aspect of an Alport capillary loop (arrow). Note the absence of immunogold labeling in the podocyte pedicles (asterisks) and the fenestrated endothelium (arrowheads). C) Quantitative results for red fluorescence in the capillary loops.
FIG. 33. […] Urine was collected at the indicated time points and analyzed for albumin using an ELISA kit. Albumin measures were normalized to urinary creatinine. Note that measurable albumin in the Sitaxentan-treated mice was not detected until 6 weeks of age indicating a delayed onset of glomerular disease.
129 Sv autosomal Alport mice were given Sitaxentan once daily by oral gavage from 2 weeks to 7 weeks of age. Kidney cryosections were immunostained using antibodies for laminin α2 and integrin α8 to determine the effect of drug treatment on laminin 211 deposition in the GBM or laminin α5 and integrin α8 to determine the degree of mesangial filopodial invasion in the glomerular capillaries. In addition, transmission electron microscopy was used to determine whether the ETAR antagonist ameliorates GBM damage.

[7] abbreviates: 100 mg/kg oral gavage from 2 to 7 weeks of age, vs vehicle.
Where [8] appears, read: serum-starved cells, 30 minutes.
The mark [9] stands for this setting: pretreated 1 hour, endothelin-1 for 30 minutes.

For the compound `COc1ccccc1Oc1c(NS(=O)(=O)c2ccc(C(C)(C)C)cc2)nc(-c2ncccn2)nc1OCCO` [Bosentan, 4-tert-butyl-N-[6-(2-hydroxy-ethoxy)-5-(2-methoxy-phenoxy)[2,{acuteover (2)}]-bipyrimidin-4-yl]-benzenesulfonamide monohydrate], in assay [1], the “Mesangial filopodial invasion and deposition of laminin 211 in the glomerular capillaries” value is “highly effective”; the “Ameliorating Alport renal disease (comparison of the two antagonists)” value is reported as “equally effective”; the GBM structural abnormalities entry was “ameliorating”; the “Glomerular expression of MMPs and pro-inflammatory cytokines” value was “significantly reducing”. In assay [1], the “Mesangial process invasion of the glomerular capillaries” value was “markedly reduced”; the “Onset and progression of proteinuria” value is “delaying the onset and progression”. Moreover, in assay [2] (setting [7]), the “Glomerular MMP-9 expression” value was “not affected”, the “Glomerular mRNA expression of IL-6” value is “significant reduction”, the “Glomerular mRNA expression of MMP-10” value is given as “significant reduction” and the “Glomerular mRNA expression of MMP-12” value is given as “significant reduction”. Further, in assay [2] (setting [7]), the “Glomerular mRNA expression of TGF-β1” value is on record as “significant reduction”. Further, in assay [2] (7 weeks of age, vs vehicle), the “Interstitial fibrosis (fibronectin immunostaining)” value is “near complete blockade”; the “Mesangial process invasion of glomerular capillaries (integrin α8 / laminin α5 immunostaining)” value was “largely localized to the mesangial matrix, with occasional interposition into the capillary loops observed”; the “Monocytic interstitial infiltration (CD11b immunostaining)” value is on record as “near complete blockade”. Moreover, in assay [2] (Bosentan-treated Alport mice vs vehicle), the “Glomerular expression of MCP-1” value was “significantly reduced”.

Regarding “endothelin-1: stimulus activating endothelin receptors on mesangial cells”, the “Formation of drebrin-positive filopodial microspikes on stimulation” value with cultured mesangial cells (setting [8]) is on record as “induces”. Besides, in the assay with CDC42 (setting [8]), the “CDC42 activation (GTP-CDC42) on stimulation” value was “significantly activates”.

Consider `CCn1c(-c2nonc2N)nc2c(C#CC(C)(C)O)ncc(OC[C@H]3CCCNC3)c21` [GSK 690693], for which the “Migration of wild type mesangial cells” value in assay [3] is “not affected”.

As for ML141, in assay [4], the “LPS-induced morphological change (filopodia / actin spikes) in presence of inhibitor” value was “could not be distinguished in blinded experiments form untreated wild type mesangial cells”. In addition, the “Integrin α1-null mesangial cell migration” value in assay [5] is on record as “unaffected”. Besides, the “Migration of wild type mesangial cells” value in assay [3] is reported as “significantly reduced”.

With `Cc1cc2c(cc1CC(=O)c1sccc1S(=O)(=O)Nc1onc(C)c1Cl)OCO2` [Sitaxentan, N-(4-chloro-3-methyl-1,2-oxazol-5-yl)-2-[2-(6-methyl-2H-1,3-benzodioxol-5-yl)acetyl]thiophene-3-sulfonamide], in assay [6] (7 weeks of age), the “GBM architecture (transmission electron microscopy)” value is given as “normalization”, the “Interstitial fibrosis (fibronectin immunostaining)” value is given as “profoundly ameliorated” and the “Monocyte recruitment to the renal interstitium (CD11b immunostaining)” value is “profoundly ameliorated”. Besides, the “Capillary integrin α8 immunostaining (quantified red fluorescence)” value in assay [6] (at least 6 glomeruli from at least three mice per group) was “normalization”. For the same compound, the “Age at which proteinuria was first detected” value in assay [6] (normally detected by 3 weeks of age) is on record as 6 weeks of age. Further, the “Mesangial filopodial invasion of glomerular capillaries” value in assay [6] (once daily oral gavage from 2 weeks to 7 weeks of age, vs vehicle) is reported as “near complete absence”. The “Proteinuria after the onset” value in assay [6] (urinary albumin normalized to creatinine) is on record as “significantly reduced”. Moreover, the “Glomerular expression of MMP-10, -12 and MCP-1 compared with the reduction seen with Bosentan” value in assay [6] (with the exception of TGF-β1) was “quantitatively similar results”. The “Endothelin-1 induced formation of drebrin-positive microspikes, with antagonist pretreatment” value with cultured mesangial cells (setting [9]) is on record as “blocks”. In assay [1], the “Mesangial filopodial invasion and deposition of laminin 211 in the glomerular capillaries” value is recorded as “highly effective”; the “Ameliorating Alport renal disease (comparison of the two antagonists)” value is on record as “equally effective”; the GBM structural abnormalities result was “ameliorating”; the “Glomerular expression of MMPs and pro-inflammatory cytokines” value is on record as “significantly reducing”. Moreover, in assay [1], the “Mesangial process invasion of the glomerular capillaries” value was “markedly reduced”; the “Onset and progression of proteinuria” value was “delaying the onset and progression”. Also, the “Endothelin-1 induced CDC42 activation (GTP-CDC42), with antagonist pretreatment” value in the assay on CDC42 (setting [9]) is reported as “prevents”.
